Measured values: patent US20220387544A1, “NOVEL THERAPEUTIC USE” (Artios Pharma Limited, priority 2019, published 2022)

Tests used:
Assay type in all cases: cell-based
[1] = tested on: CAL51 breast cancer cells; assay: siRNA screen for Compound A sensitivity in CAL51
Description: An siRNA library was purchased from Dharmacon. Each well contained a SMART pool of four distinct siRNA species targeting different sequences of the target transcript, as well as individual siRNA targeting components of the Shieldin complex. Each plate was supplemented with negative siCONTROL (12 wells; Dharmacon) and positive control (four wells, siPLK1, Dharmacon). RNAi screening conditions were optimized and raw CellTitre-Glo (Promega) luminescent viability readings were generated as previously described (Lord et al DNA Repair (2008) 7, 2010-2019). Compound A or vehicle (DMSO) was added 24 h after transfection at 5 μM (CAL51) or 10 μM (RPE TP53-/-BRCA1-defective) concentration in media and cells were exposed for 5 days. Statistical analysis of the siRNA screen was performed as described elsewhere (Lord et al DNA Repair (2008) 7, 2010-2019). In brief, luminescence values from CellTitre-Glo assays in Compound A and DMSO exposed cells were log2 transformed and then normalized to plate median (PM) effects. Drug Effect (DE) scores were calculated from PM normalized data using the equation: DE=(log2 PM normalized signal of siRNA in the presence of Compound A)—(log2 PM normalized signal of siRNA in the absence of Compound A). DE values were then Z-score standardized according to screen median and median absolute deviation values.
To discover genes that are synthetic lethal with Polθ inhibitors, an siRNA screen using 1280 siRNAs was performed using CAL51 breast cancer cells. The cells were transfected with siRNA SMARTPools in a 384 well plate arrayed format then, twenty-four hours later, exposed to either DMSO or Compound A. Cells were then continuously cultured in the presence of Compound A or DMSO for a further five days, at which point the viability of cells was measured using CellTitre-Glo reagent (a luminescence assay measuring cellular ATP levels). Luminescence values from each well of the 384 well plate were log2 transformed and then normalized to the median signal on each plate (to account for plate to plate variation). By comparing normalized values for each siRNA SMARTPool in DMSO and Compound A-exposed cells, the effect of each siRNA on Compound A sensitivity was calculated, being expressed as a Drug Effect (DE) Z score.

[2] = tested on: Parental and REV7 KO SUM149 cells; assay: Clonogenic survival assay (ICR), SUM149 REV7 KO clones; settings: REV7 KO clones vs parental SUM149, 14 days
Protocol: Clonogenic survival assays were performed as previously described (Edwards et al Nature (2008) 451, 1111-1115; Farmer et al Nature (2005) 434, 917-921). For measurement of sensitivity to Compound A inhibitor, exponentially growing cells were seeded in six-well plates at a concentration of 1000-2000 cells per well. For Compound A, cells were continuously exposed to the drug with media and drug replaced every 72 h. After 14 days, cells were fixed and stained with sulphorhodamine-B (Sigma) and colonies were counted. SFs were calculated and drug sensitivity curves plotted as previously described (Farmer et al Nature (2005) 434, 917-921).
Parental or REV7 KO SUM149 cells were seeded into 6 well plates and incubated overnight. The cells were then treated with a serial dilution of Polθ inhibitor or olaparib for 14 days, fixed, and stained with sulphorhodamine B. The colonies in each well were counted and normalised survival data plotted to generate a dose-response curve.

[3] = tested on: parental and SHLD2 KO HCC1395 cells; assay: Colony formation assay, HCC1395; settings: SHLD2 KO vs parental HCC1395 cells, colony solubilisation protocol
Protocol: 1 mL of cells were seeded per well in a 24-well plate in triplicate and incubated overnight at 37° C. Cells were treated with a seven-point dose response curve with a one-in-three serial dilution of compound for the timepoints listed in Table 5. For MDA-MB-436 cells media was replenished every five days.
Cells were fixed with 70% ethanol for 20 minutes at room temperature with shaking. Cells were then stained with 0.04% Crystal Violet (Sigma Aldrich) for 20 minutes at room temperature with shaking. Cells were washed 6 times with water and air-dried overnight.
Plates were imaged using a Gelcount (Oxford Optronix), and colonies were counted using parameters optimized for each cell line. […] Colonies were solubilized using 10% acetic acid (VWR) for 30 minutes, absorbance at 595 nm was read using the Clariostar plate reader (BMG Labtech), and blank correction was applied. Relative Survival was calculated by normalization of compound treated wells to DMSO treated wells.
The effect of a DNA polymerase theta […] inhibitor (Compound A) and the PARP inhibitor olaparib on the survival of parental and SHLD2 deleted (SHLD2 KO) HCC1395 cells was investigated by colony formation assay. Briefly, each population was seeded at low density, incubated with different concentrations of the compound and the relative survival normalized to untreated cells was measured with the colony solubilisation protocol.

[4] = tested on: Shieldin-defective, PARPi-resistant SUM149 cells; assay: Re-sensitisation to olaparib
Protocol: For measurement of re-sensitisation to Olaparib, exponentially growing cells were exposed to Compound A for 48 hours. After, cells were seeded in 96-well plates at a concentration of 1000-2000 cells per well. 24 hours post-seeding, Olaparib treatment was initiated and cells were continuously exposed to the drug with media and drug replenished every 72 hours. After 10 days, cell viability was estimated using Cell-Titre Glo (Promega). SFs were calculated and drug sensitivity curves plotted as previously described (Farmer et al Nature (2005) 434, 917-921).
Briefly, parental SUM149 cells or derivatives with either BRCA1 restored or with genetic deletion of either C20orf196 or 53BP1 were treated with Compound A in a tissue culture flask for 48 hours. The cells were then washed before seeding at low density in 96 well plates. 24 hours post seeding, cells were incubated with either olaparib or DMSO for a further 10 days. The relative survival normalised to untreated cells was measured using Cell-Titre Glo.

Cc1cccc(N(C)C(=O)[C@@H]2[C@H](O)CCN2c2nc(C)cc(C(F)(F)F)c2C#N)c1 [Compound A, (2S,3R)-1-(3-cyano-6-methyl-4-(trifluoromethyl)pyridin-2-yl)-3-hydroxy-N-methyl-N-(m-tolyl)pyrrolidine-2-carboxamide]
Drug Effect (DE) Z-score ([1]; non-targeting siRNA Allstar control): 1.0
Drug Effect (DE) Z-score ([1]; non-targeting siRNA siCON1): 0.8
Drug Effect (DE) Z-score ([1]; non-targeting siRNA siCON2): 1.0
Drug Effect (DE) Z-score ([1]; siRNA pool targeting REV7, 5 μM, 5 days, median of triplicate screens): −2.88
sensitivity by reduction in number of colonies [2]: increased sensitivity
sensitivity by relative survival [3]: significantly more sensitive
sensitivity to olaparib after pre-treatment ([4]; Compound A 10 μM 48 hours then olaparib 1 μM 10 days, SUM149 C20orf196 and SUM149 53BP1 cells): induced sensitivity
effect on survival of 48 hours treatment alone ([4]; Compound A 10 μM for 48 hours then DMSO, SUM149 cells and derivatives): no effect on survival
